# Experimental data: a melting point compilation (Tetko et al.; mined from patent text by program, amines drawn as free bases though some values may be those of a salt)
row,Compound,melting point
1,c1ccc(CN2c3ccccc3-c3noc4c3C2CCC4)cc1 (stereo unspecified),162 to 164 °C
2,CCCNCCC1Cc2ccc(C3=NNC(=O)CC3)cc2C1 (stereo unspecified),123 to 124 °C
3,C=CNC(=O)n1sc(OCC)nc1=O,123 °C
4,Cn1ccn(-c2ccc(N3CCN(c4ccc(O)cc4)CC3)cc2)c1=O,283 °C
5,CC1=C(/C=C/S(=O)(=O)NC(C)C)C(c2cc([N+](=O)[O-])ccc2Cl)C(C(=O)OC(C)C)=C(C)N1 (stereo unspecified),199 to 201 °C
6,O=C1OC2(CCN(C(=O)Nc3cnc(-c4ccccc4)cn3)CC2)c2cc(O)ccc21,206 to 208 °C
7,O[C@@H]1CCC(c2ccccc2)(c2ccccc2)[C@@H]2CN(Cc3ccccc3)C[C@H]12,154 °C
8,COC(=O)c1cnn(C)c1Cl,69 to 70 °C
9,CC1(c2cccc(NS(C)(=O)=O)c2)C2CN(C(=O)CCc3cccs3)CC21 (stereo unspecified),184 °C
10,Cc1oc(-c2ccccc2)nc1CCOc1ccc(NC2SC(=O)NC2=O)cc1 (stereo unspecified),179 to 180 °C
11,Clc1ccc2c(C3=CCN(CCCOc4cccc5[nH]ccc45)CC3)c[nH]c2c1Cl,224 to 227 °C
12,O=C1COCCOCC(=O)NCCOCCOCCOCCN1,90 to 91 °C
13,CCCC(=O)C(=CNc1ccccc1F)C(=O)OCC,60 to 62 °C
14,CN(C)Nc1c(-c2c(F)cc(F)cc2F)c(Cl)nc2ncnn12,165 to 168 °C
15,COCCNC(=O)c1cccc(-c2cccc3cc(Cc4ccc5c(c4)CCO5)sc23)c1,79 to 80 °C
16,O=C(O)CCC(=O)Nc1ccc2oc(-c3ccc(O)cc3)c(O)c(=O)c2c1,256 to 257 °C
17,O=C1Nc2ccc(NC(=O)C(=O)N3CCC(Cc4ccc(F)cc4)CC3)cc2C1=O,205 to 206 °C
18,CS(=O)c1ccc(C2=C(c3cc(F)cc(F)c3)C(=O)C(C)(C)O2)cc1 (stereo unspecified),133 to 134 °C
19,CC1(C)Oc2ccc(I)cc2[C@@H](N2Cc3ccccc3C2=O)[C@@H]1O (relative stereo),224 to 228 °C
20,O=C(CCC1CCCCC1)NC1N=C(c2ccccc2)c2ccccc2NC1=S (stereo unspecified),113 to 119 °C
21,O=C1c2ccccc2C(=O)N1CCCCN1CCC(c2c[nH]c3ccccc23)CC1,106 to 108 °C
22,C=CC(=O)NCC(C(=O)c1ccccc1)C(=O)c1ccccc1,146 to 148 °C
23,Cc1nc(=O)n(-c2cc(C(=O)OC(C)C)c(Cl)cc2F)c(N)c1C#N,255 to 257 °C
24,CCC1=C(C(=O)OC)C(c2ccc(F)cc2Cl)N=C(c2cscn2)N1 (stereo unspecified),144 to 147 °C
25,CCOC(=O)CCCN1C(=O)c2ccc(N/C(=C3\C(=O)Nc4ccccc43)c3ccccc3)cc2C1=O,78 to 80 °C
26,CS(=O)(=O)c1ccc(-c2cnn(-c3ccc(Cl)c(F)c3)c(=O)c2-c2ccc(F)cc2)cc1,102 to 110 °C
27,Cc1cn(C2CCCCC2)c(=O)nc1NS(=O)(=O)c1ccc(N)cc1,203 to 206 °C
28,COC(=O)c1ccc(-c2ccc(Cl)s2)nc1,122 to 124 °C
29,Nc1cc(Cl)c(Cl)cc1-n1cccc1,57 to 58 °C
30,CSc1cnc(NC2=NCC3(CN4CCC3CC4)O2)cn1 (stereo unspecified),155 to 160 °C

# Second part, the compound after the results:
row,melting point,Compound
1,80 to 81 °C,CCCCCCCCCCCCCCCC(=O)C(O)C(=O)C(O)C(=O)CCCCCCCCCCCCCCC (stereo unspecified)
2,132 to 134 °C,CC(=O)Nc1ccc(OCCN2CCc3ccc([N+](=O)[O-])cc3CC2)cc1C
3,133 to 135 °C,COCc1cc(-c2ncc3[nH]c4cccc(OCc5ccccc5)c4c3c2COC)no1
4,188 to 190 °C,CC(C)(C)C(F)(F)c1ccc(C[C@H]2NC(=O)O[C@H]2c2cccc(Cl)c2)cc1 (racemic)
5,150 to 151 °C,Clc1cccc2c1Oc1ccccc1N=C2N1CCN2CCC[C@H]2C1
6,124 to 125 °C,CCNC(=O)c1c(Cl)cccc1[Si](C)(C)C1CC2CCC1C2 (stereo unspecified)
7,88 to 91 °C,Cc1cncn1Cc1ccc2ccc3c(c2c1)C(C)(C)C(=O)O3
8,241 to 242 °C,Cc1cc2c(cc1C(F)(F)F)NC(=O)CC(c1cccc(-c3ncoc3C)c1)=N2
9,156 to 158 °C,CN1CCN(C(=O)C(CC(=O)N2Cc3cscc3C2)Cc2ccccc2)CC1 (stereo unspecified)
10,143 to 145 °C,CC(C)C1C(CO)=C(c2ccc(F)cc2)C=CN1C12CC3CC(CC(C3)C1)C2 (stereo unspecified)
11,119 to 120 °C,CCSc1cc(C)nc(SCC)c1NC(=O)CCCSc1nc2ccccc2s1
12,> 300 °C,Cc1[nH]c(=O)cc2c1CC(c1ccncc1)CC2 (stereo unspecified)
13,45 to 47 °C,Cc1cc(CCCCCOc2c(Cl)cc(-c3cccs3)cc2Cl)on1
14,55 °C,COC(=O)c1ccn2cc(Cc3cccc(F)c3C)c(-c3ccccc3)c2c1
15,131 to 132 °C,CN(C)CCOc1cc2c(Nc3ccc(F)c(Cl)c3)c(C#N)cnc2cn1
16,109 to 111 °C,Cn1cc(C2=C(c3c4n(c5ccccc35)CCC(CO)CC4)C(=O)NC2=O)c2ccccc21 (stereo unspecified)
17,228 °C,CNC(=S)N1CCc2[nH]cnc2C1
18,199 °C,COC(=O)NCC1=C(n2ccccc2=O)c2cc([N+](=O)[O-])ccc2OC1(C)C
19,61 to 62 °C,CC(=O)Oc1cc(OC(C)=O)cc(C(=O)CBr)c1
20,223 to 224 °C,CN(c1cccc2cc(C(N)=O)[nH]c12)S(=O)(=O)c1ccccc1C(F)(F)F
21,208 °C,COc1ccc(N2CCN(c3ccc(-n4cnn(CC(F)(F)F)c4=O)cc3)CC2)cc1

row,melting point,Compound
1,211 to 213 °C,COc1cc(OCC(=O)O)c(C)cc1SCc1sc(-c2ccc(C(F)(F)F)cc2)nc1C
2,51 to 54 °C,N#Cc1ccc(OCCCCCI)cc1
3,226 °C,NNC(=O)C(=O)N(N)C(=O)c1ccccc1
4,261 to 264 °C,NC(Cc1cc(Cl)c(Sc2ccc(O)c(Cc3ccc(=O)[nH]c3)c2)c(Cl)c1)C(=O)O (stereo unspecified)
5,200 to 202 °C,COC(=O)c1cc(-c2ccccc2Cl)c(=O)n2ncc3ccc(Cl)cc3c12
6,124 to 125 °C,CNC(=O)Cc1ccc(O)cc1
7,227 to 230 °C,CCN1C(=O)C(C)(C)c2ccc(C(=O)Nc3ccccc3)cc21
8,179 to 180 °C,Cn1c(=O)c2c(ncn2CC(O)Cc2noc(-c3ccccc3)n2)n(C)c1=O (stereo unspecified)
9,190 to 192 °C,COC(=O)c1nn(-c2ccccc2)c2c1CCc1cc(Cl)ccc1-2
10,40.5 to 45 °C,CCOC(=O)[C@H]1O[C@@H]1C(=O)N[C@H](COCC(C)C)C(C)C
11,235 to 237 °C,CN(C)c1ccc(-n2c(CC(=O)O)c(C(=O)O)c3cc(Oc4ccc(C(F)(F)F)cc4)ccc32)cc1
12,109 to 110 °C,O=C(C[C@@H](CCCC1CCCCC1)c1nc(CNC2CCOCC2)no1)NO
13,88 to 89 °C,COc1cc(CSCCC(=O)SCc2cc(OC)c(OC)c(OC)c2)cc(OC)c1OC
14,124 to 126 °C,CS(=O)(=O)CCCOc1cccc2c1ccn2-c1ccnc(NC2CCC(C(=O)N3CCC(CN)CC3)CC2)n1 (stereo unspecified)
15,79 to 81 °C,N#CCC(=O)c1ccc[nH]1
16,103 to 104 °C,Fc1ccc(-c2ncn(CCCCN3CCOCC3)c2-c2ccncc2)cc1
17,62 to 64 °C,C#CCOc1ncc(Cl)cc1OC
18,100 to 102 °C,O=C1COC(CCc2ccccc2)CN1 (stereo unspecified)
19,163 to 165 °C,CCC1CC(=O)C=C(c2ccc(OCC(=O)O)c(Cl)c2Cl)C1 (stereo unspecified)
20,301 to 304 °C,COc1ccc(Nc2nn3c(-c4ccc(OC)cc4)nnc3c3ccccc23)cc1
